Measured values from patent US20240246942A1, “KINASE INHIBITORS FOR THE TREATMENT OF NEURODEGENERATIVE DISEASES” (priority 2020, published 2024).

Experiments:
Experiment in all cases: biochemical
[1] = target: T1, panel of 374 wild-type kinases (Homo sapiens, UniProt P21802); conditions: read-out: % Enzyme Activity (relative to DMSO controls), FGFR2
T1 construct: purchased Reaction Biology Corporation

[2] = target: T2, panel of 374 wild-type kinases (Homo sapiens, UniProt Q9HAZ1); conditions: read-out: % Enzyme Activity (relative to DMSO controls), CLK4
T2 construct: purchased Reaction Biology Corporation

[3] = target: T3, panel of 374 wild-type kinases (Homo sapiens, UniProt Q9UK32); conditions: read-out: % Enzyme Activity (relative to DMSO controls), kinase RSK4
T3 construct: purchased Reaction Biology Corporation

[4] = target: T4, panel of 374 wild-type kinases (Homo sapiens, UniProt Q9Y6M4); conditions: read-out: % Enzyme Activity (relative to DMSO controls), CK1g3
T4 construct: purchased Reaction Biology Corporation

[5] = target: T5, panel of 374 wild-type kinases (Homo sapiens, UniProt Q9NWZ3); conditions: read-out: % Enzyme Activity (relative to DMSO controls), IRAK4
T5 construct: purchased Reaction Biology Corporation
T5 sequence (Q9NWZ3 1-460): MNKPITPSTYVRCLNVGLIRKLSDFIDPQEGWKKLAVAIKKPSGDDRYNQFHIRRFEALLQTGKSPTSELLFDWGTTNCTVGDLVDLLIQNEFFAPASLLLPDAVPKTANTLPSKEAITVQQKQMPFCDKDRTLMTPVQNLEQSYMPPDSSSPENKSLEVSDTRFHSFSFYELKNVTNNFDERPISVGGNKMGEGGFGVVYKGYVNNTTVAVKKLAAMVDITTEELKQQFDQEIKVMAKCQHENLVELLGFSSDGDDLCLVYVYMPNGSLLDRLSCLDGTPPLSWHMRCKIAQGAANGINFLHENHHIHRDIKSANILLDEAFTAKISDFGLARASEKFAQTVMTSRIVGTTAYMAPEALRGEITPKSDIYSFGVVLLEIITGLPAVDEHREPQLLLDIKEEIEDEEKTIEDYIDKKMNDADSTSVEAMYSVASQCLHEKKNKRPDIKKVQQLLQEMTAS

[6] = target: T6, panel of 374 wild-type kinases (Homo sapiens, UniProt Q8WTQ7); conditions: for remaining activity at 5 µM: read-out: % Enzyme Activity (relative to DMSO controls), GRK7
T6 construct: purchased Reaction Biology Corporation
T6 sequence (Q8WTQ7 1-553): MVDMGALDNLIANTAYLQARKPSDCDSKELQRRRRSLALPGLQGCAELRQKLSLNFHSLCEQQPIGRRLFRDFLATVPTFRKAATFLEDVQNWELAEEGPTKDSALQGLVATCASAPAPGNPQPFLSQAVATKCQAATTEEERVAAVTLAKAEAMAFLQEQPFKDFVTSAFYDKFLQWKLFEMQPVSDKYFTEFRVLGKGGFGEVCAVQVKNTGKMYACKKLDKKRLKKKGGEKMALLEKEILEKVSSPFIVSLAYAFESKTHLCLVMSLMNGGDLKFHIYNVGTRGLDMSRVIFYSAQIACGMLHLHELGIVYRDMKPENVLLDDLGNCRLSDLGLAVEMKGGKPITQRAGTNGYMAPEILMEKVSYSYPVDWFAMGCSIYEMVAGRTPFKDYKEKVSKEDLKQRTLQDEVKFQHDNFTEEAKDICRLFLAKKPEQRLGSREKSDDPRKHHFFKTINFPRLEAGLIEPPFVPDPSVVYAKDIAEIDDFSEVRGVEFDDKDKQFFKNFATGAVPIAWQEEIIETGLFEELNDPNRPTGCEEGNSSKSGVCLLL

[7] = target: T7, panel of 374 wild-type kinases (Homo sapiens, UniProt P49761); conditions: read-out: % Enzyme Activity (relative to DMSO controls), CLK3
T7 construct: purchased Reaction Biology Corporation

[8] = target: T8, panel of 374 wild-type kinases (Homo sapiens, UniProt P48729); conditions: read-out: % Enzyme Activity (relative to DMSO controls), CK1a1
T8 construct: purchased Reaction Biology Corporation

[9] = target: T9, panel of 374 wild-type kinases (Homo sapiens, UniProt P45985); conditions: read-out: % Enzyme Activity (relative to DMSO controls), MKK4
T9 construct: purchased Reaction Biology Corporation
T9 sequence (P45985 1-399): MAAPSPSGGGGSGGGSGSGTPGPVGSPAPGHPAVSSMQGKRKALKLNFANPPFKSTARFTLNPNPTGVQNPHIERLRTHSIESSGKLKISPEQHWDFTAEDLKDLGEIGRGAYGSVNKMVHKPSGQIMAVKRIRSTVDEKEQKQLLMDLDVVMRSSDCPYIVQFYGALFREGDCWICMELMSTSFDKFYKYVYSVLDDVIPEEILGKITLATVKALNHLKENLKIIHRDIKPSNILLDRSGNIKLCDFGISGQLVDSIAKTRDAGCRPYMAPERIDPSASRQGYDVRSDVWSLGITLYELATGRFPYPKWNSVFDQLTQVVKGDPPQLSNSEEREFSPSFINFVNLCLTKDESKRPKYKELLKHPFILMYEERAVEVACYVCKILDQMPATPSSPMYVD

[10] = target: T10, panel of 374 wild-type kinases (Homo sapiens, UniProt P22455); conditions: for remaining activity at 5 µM: read-out: % Enzyme Activity (relative to DMSO controls), FGFR4
T10 construct: purchased Reaction Biology Corporation
T10 sequence (P22455 22-802): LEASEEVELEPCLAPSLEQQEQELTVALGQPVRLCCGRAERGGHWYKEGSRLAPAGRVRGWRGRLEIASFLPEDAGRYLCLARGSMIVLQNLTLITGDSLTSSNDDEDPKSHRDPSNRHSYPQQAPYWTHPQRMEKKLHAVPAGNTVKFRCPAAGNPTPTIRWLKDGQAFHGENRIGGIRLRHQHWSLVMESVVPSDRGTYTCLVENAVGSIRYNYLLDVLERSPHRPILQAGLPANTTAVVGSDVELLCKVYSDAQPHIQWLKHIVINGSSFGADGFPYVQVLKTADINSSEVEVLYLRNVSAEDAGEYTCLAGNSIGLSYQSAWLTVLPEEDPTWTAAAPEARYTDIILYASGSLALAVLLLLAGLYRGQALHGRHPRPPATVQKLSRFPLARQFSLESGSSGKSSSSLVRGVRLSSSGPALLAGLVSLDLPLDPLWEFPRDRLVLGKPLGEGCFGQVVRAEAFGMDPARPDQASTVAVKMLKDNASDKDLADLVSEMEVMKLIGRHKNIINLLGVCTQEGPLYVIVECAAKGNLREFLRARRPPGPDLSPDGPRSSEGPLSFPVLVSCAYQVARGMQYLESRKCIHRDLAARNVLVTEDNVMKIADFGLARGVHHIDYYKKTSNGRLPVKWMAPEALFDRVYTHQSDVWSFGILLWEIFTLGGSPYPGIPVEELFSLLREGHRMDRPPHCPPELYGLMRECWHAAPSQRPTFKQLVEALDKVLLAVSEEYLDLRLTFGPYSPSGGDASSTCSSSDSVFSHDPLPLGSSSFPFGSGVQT

T4 sequence (Q9Y6M4 whole entry): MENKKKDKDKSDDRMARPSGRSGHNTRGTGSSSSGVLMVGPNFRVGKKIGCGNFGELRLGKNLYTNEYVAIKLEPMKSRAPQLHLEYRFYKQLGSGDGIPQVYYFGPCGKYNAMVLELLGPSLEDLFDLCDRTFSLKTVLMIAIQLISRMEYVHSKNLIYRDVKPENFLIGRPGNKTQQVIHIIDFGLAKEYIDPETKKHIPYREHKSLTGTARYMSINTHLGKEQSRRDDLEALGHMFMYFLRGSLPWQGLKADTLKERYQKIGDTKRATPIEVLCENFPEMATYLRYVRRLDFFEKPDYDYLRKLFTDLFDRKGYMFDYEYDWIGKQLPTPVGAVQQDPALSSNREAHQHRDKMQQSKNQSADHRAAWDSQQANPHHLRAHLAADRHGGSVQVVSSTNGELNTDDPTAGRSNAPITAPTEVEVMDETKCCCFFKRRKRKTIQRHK
T2 sequence (Q9HAZ1 whole entry): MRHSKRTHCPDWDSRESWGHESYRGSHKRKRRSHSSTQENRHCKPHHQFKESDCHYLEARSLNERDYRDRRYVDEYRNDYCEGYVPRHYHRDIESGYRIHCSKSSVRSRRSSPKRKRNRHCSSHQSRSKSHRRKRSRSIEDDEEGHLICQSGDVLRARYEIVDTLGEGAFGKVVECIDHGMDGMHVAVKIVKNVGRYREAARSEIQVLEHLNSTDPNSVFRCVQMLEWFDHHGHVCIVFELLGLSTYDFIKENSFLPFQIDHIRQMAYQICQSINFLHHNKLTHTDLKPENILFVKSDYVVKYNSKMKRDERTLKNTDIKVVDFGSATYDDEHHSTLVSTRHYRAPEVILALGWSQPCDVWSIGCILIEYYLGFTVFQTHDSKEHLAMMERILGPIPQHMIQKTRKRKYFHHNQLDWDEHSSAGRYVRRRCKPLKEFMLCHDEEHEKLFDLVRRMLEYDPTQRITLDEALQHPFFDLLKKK
T1 sequence (P21802 22-821): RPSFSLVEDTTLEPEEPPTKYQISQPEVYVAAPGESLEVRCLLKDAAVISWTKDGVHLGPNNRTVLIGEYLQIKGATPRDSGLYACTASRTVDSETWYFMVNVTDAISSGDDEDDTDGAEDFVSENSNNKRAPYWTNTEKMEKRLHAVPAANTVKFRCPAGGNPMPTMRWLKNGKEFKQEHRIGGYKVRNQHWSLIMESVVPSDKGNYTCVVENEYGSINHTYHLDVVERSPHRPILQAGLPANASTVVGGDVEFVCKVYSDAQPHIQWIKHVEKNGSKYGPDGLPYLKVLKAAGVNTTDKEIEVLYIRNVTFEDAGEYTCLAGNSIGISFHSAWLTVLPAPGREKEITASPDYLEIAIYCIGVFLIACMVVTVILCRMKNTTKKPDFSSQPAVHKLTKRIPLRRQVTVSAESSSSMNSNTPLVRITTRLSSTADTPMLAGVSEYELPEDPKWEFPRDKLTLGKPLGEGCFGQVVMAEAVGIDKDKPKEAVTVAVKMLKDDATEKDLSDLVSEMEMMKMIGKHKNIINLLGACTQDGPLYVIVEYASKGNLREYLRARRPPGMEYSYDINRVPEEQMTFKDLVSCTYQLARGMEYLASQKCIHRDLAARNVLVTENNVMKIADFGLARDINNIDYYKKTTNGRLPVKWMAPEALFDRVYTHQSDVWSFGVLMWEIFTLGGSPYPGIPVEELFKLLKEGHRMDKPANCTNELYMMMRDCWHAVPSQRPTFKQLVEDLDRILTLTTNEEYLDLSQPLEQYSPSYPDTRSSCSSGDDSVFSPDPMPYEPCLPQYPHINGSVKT
T3 sequence (Q9UK32 whole entry): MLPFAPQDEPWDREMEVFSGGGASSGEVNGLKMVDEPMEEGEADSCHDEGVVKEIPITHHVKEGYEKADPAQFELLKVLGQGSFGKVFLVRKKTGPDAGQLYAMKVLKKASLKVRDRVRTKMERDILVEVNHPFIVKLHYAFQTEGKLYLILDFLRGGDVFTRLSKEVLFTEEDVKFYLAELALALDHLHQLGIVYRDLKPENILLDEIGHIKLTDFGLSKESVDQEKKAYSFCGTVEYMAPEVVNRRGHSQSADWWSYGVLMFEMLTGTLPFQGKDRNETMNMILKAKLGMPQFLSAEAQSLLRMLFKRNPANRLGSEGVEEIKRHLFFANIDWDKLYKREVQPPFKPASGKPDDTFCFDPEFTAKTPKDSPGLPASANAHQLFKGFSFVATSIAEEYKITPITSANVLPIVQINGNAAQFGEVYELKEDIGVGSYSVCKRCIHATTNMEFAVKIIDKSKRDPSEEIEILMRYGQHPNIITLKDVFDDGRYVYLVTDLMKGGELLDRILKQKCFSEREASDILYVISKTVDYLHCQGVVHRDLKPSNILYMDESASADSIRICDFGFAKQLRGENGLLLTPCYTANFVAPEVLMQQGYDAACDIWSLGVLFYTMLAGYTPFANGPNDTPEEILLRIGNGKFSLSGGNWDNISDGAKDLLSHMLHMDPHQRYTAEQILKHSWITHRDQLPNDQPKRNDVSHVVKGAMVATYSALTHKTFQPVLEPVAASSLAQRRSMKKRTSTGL
T7 sequence (P49761 whole entry): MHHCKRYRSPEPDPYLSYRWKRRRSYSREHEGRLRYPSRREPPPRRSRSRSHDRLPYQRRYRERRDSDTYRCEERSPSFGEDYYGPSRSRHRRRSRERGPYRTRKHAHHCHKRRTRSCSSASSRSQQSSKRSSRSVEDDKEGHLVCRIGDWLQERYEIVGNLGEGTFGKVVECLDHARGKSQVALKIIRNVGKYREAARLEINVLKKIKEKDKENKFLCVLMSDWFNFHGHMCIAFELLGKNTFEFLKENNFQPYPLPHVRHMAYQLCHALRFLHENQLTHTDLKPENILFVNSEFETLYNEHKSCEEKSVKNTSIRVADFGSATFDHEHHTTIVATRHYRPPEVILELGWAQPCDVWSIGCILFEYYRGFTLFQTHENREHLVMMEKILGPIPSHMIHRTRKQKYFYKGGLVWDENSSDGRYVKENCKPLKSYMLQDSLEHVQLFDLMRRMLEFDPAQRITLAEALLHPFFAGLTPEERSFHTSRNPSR
T8 sequence (P48729 whole entry): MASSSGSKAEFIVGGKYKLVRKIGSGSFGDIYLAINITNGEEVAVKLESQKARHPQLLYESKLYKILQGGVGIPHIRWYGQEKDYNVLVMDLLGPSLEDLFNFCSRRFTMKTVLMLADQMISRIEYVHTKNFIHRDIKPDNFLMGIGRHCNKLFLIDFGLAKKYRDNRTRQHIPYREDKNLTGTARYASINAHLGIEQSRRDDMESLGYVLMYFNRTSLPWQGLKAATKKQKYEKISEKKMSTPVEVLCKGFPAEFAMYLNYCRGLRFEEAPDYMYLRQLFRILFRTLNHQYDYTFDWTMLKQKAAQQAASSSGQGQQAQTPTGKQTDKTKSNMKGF

Structure (SMILES)	remaining activity at 5 µM [1] [%]	remaining activity at 5 µM [2] [%]	remaining activity at 5 µM [3] [%]	remaining activity at 5 µM [4] [%]	remaining activity at 5 µM [5] [%]	remaining activity at 5 µM [6] [%]	remaining activity at 5 µM [7] [%]	remaining activity at 5 µM [8] [%]	remaining activity at 5 µM [9] [%]	remaining activity at 5 µM [10] [%]	remaining activity at 10 µM ([1]; 10 uM) [%]	remaining activity at 10 µM ([2]; 10 uM) [%]	remaining activity at 10 µM ([3]; 10 uM) [%]	remaining activity at 10 µM ([4]; 10 uM) [%]	remaining activity at 10 µM ([5]; 10 uM) [%]	remaining activity at 10 µM ([6]; GRK7, 10 uM, read-out: % Enzyme Activity (relative to DMSO controls)) [%]	remaining activity at 10 µM ([7]; 10 uM) [%]	remaining activity at 10 µM ([8]; 10 uM) [%]	remaining activity at 10 µM ([9]; 10 uM) [%]	remaining activity at 10 µM ([10]; FGFR4, 10 uM, read-out: % Enzyme Activity (relative to DMSO controls)) [%]
O=C(Nc1cnn(-c2csc(C(=O)NC3COC3)c2)c1)Nc1ccccc1Cl [Compound 17, 4-(4-(3-(2-chlorophenyl)ureido)-1H-pyrazol-1-yl)-N-(oxetan-3-yl)thiophene-2-carboxamide]	95.6	66	107	103	92.1	96.4	120	98.5	113	88.2	–	–	–	–	–	–	–	–	–	–
Cc1sc(C(=O)NC2COC2)cc1-n1cc(NC(=O)Nc2c(F)cccc2Cl)cn1 [Compound 27, 4-(4-(3-(2-chloro-6-fluorophenyl)ureido)-1H-pyrazol-1-yl)-5-methyl-N-(oxetan-3-yl)thiophene-2-carboxamide]	–	–	–	–	–	–	–	–	–	–	106	102	116	91.3	103	98.3	99.6	81.1	93	96.8
O=C(Nc1cnn(-c2csc(C(=O)NC3COC3)c2)c1)Nc1c(F)cccc1Cl [Compound 25, 4-(4-(3-(2-chloro-6-fluorophenyl)ureido)-1H-pyrazol-1-yl)-N-(oxetan-3-yl)thiophene-2-carboxamide]	103	93.2	92.2	92.6	97.8	94	93.5	76.6	133	99.6	–	–	–	–	–	–	–	–	–	–
